Reference: patent publication US20240307409A1, “ARGININE METHYLTRANSFERASE INHIBITOR AND USE THEREOF” (Cytosinlab Therapeutics Co., Ltd., priority 2021, published 2024)

Key:
MV-4-11 cells = test: MV-4-11 cell proliferation inhibition assay; format: cell-based; settings: Homo sapiens, MV4-11, 144 h; six-day assay, CellTiter-Glo
Method: • A. Purpose: to determine the effects of compounds on Toledo cells through a six-day cell proliferation assay. • B. Reagents and materials: • 1. Cell culture medium: RPMI 1640+10% FBS • 2. 384-well cell culture plate (Corning, item #3764) • 3. 0.4% Taipan Blue Staining Solution (Thermo Fisher, item #T10282) • 4. cell counting plate (Thermo Fisher, item #C10228) • 5. 50 ml reagent reservoir (Corning, item #4870) • 6. 50 ml conical sterile polypropylene centrifuge tube (Thermo Fisher, item #339653) • 7. Automatic cell counter (Thermo Fisher, item #AMQAX1000) • 8. CellTiter-Glo Luminescent Cell Viability Detection Reagent (Promega, item #G7572) • 9. SpectraMax i3x Multi-Mode Enzyme Labeling Instrument (Megaman Molecular Instruments, item #5024062) • C. Experimental method • 1. Resuspending the cells with a pipette. • 2. 0.4% Taipan blue staining solution and Toledo cells were mixed in equal proportion, and the cells were counted using an automatic cell counter. • 3. Toledo cells were diluted to a final concentration of 2000 cells per well and transferred to a 50 ml reagent reservoir. • 4. Diluted Toledo cells were added to a 384-well cell culture plate, 40 ul per well. • 5. The cells were shortly centrifuged and settled. • 6. The cells were incubated in a 37° C., 5% CO2 cell culture incubator. • 7. The substrate in the CellTiter-Glo Luminescent Cell Viability Detection Reagent was mixed with the solution. • 8. After six days, the 384-well cell culture plate was taken from the incubator and 20 ul of configured CellTiter-Glo reagent was added to each well. • 9. 384-well cell culture platewasmixed in an orbital shaker for 30 minutes. • 10. Signal of luminescence was detected with a SpectraMax i3x multi-mode enzyme labeling instrument.
Similar to the Toledo cell proliferation inhibition assay method, the difference was that MV-4-11 cells were used and the cell culture medium was IMDM+10% FBS; in step 3 of the assay method 250 cells per well was used instead;

PRMT1 = PRMT1 (Homo sapiens, UniProt Q99873); test: PRMT1 enzyme activity test; format: biochemical; settings: 0.5 nM PRMT1, 3H-SAM, peptide
Sequence of PRMT1 (Q99873 whole entry): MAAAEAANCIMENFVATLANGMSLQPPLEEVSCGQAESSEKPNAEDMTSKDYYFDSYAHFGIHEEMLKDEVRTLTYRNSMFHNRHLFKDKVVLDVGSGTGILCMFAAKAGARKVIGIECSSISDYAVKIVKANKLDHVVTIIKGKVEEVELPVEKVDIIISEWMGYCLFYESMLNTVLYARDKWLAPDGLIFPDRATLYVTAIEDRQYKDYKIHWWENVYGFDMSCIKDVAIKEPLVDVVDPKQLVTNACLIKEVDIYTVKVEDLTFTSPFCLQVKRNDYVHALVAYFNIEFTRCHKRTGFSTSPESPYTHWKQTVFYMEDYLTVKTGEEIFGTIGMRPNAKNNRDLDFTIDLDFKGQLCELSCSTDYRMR
Outline: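 Radiometric methylation assay: 0.5 nM PRMT1 preincubated 15 min at room temperature with compound (10-point 3-fold series, 1% DMSO) in pH 8.0 Tris buffer with Tween-20 and DTT. 0.25 uM ³H-SAM and 0.1 uM biotinylated peptide then reacted 120 min. Product captured on streptavidin FlashPlate and counted; IC50 from four-parameter fit of % inhibition.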

Toledo cells = test: Toledo cell proliferation inhibition assay; format: cell-based; settings: Homo sapiens, Toledo, 144 h; six-day assay, CellTiter-Glo
Outline: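 Toledo cells seeded at 2000 cells/well in RPMI 1640 + 10% FBS and incubated with compound for six days at 37° C, 5% CO2. Viability was then read by CellTiter-Glo luminescence after 30 min orbital mixing.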

MMA in RKO cells = test: RKO In Cell Western assay (MMA primary antibody); format: cell-based; settings: Homo sapiens, 72 hours, read-out: RKO ICW_EC30
Method: RKO was seeded at a concentration of 20,000 cells/ml into a polylysine-coated 96-well plate (Corning #3599), with 2,000 cells per well and 100 μL of culture mediumper well. 500 nL of compound was added to the 96-well plate. 3) The 96-well plate was incubated in a 37° C., 5% CO2 incubator for 72 hours. After three days, the 96-well plate was taken from the incubator, 100 μL of 8% paraformaldehyde solution was added to each well, and the plate was placed at room temperature for 15 min. After 15 min, the liquid in the plate was shaken out and the plate was washed three times with phosphate buffer (1*PBS). The liquid in the plate was shaken out and 200 μL of membrane-breaking buffer (0.1% (v/v) Tween-20 in PBS) was added and the plate was incubated on a shaker for 30 min. After half an hour, the liquid in the plate was shaken out, and blocking buffer was added and the plate was incubated for two hours at room temperature with shaking. After that, the liquid in the plate was shaken off, and the blocking solution containing primary antibody (MMA primary antibody, CST #8711S, 1:1000 v/v) was added to the 96-well plate and the plate was incubated at 4° C. overnight with shaking. The next day, the plate was washed three times with washing solution (0.05% (v/v) Tween-20 in PBS), and a blocking solution containing secondary antibody (goat anti-rabbit IgG (H+L) Invitrogen #31460, 1:10,000 v/v) was added and the plate was incubated for two hours at room temperature. Afterwards, the 96-well plate was washed four times with washing solution. The TMB mixture was added to the 96-well plate and then the plate was incubated for 15 minutes at room temperature with shaking. After that, the reaction terminating solution was added, and the value was read at OD450 nm using an microplate reader. The plate was washed three times with washing solution, and 50 μL of janusgreen staining solution was added, and the plate was incubated for 15 minutes at room temperature with shaking. The reaction was washed ten times with water until no color residue was left. 200 μL of 0.5 M hydrochloric acid solution was added to each well and the plate was incubated for 10 min at room temperature. The value was read at OD595 nm using Flexstation.
Firstly, the ratio OD450/OD595 was calculated for each well
Each plate had six DMSO negative control groups (ZPE) and six 10 μM positive control groups (HPE), and the average of the control group ratios was used to determine the percentage of activation for each test well. The compounds to be tested were triple diluted with DMSO for a total of 8 concentration points with a starting concentration of 5 μM. The equation for calculating the activation percentage of each test well was: […]

Row | Structure (SMILES) | IC50 (MV-4-11 cells) [nM] | IC50 (PRMT1) [nM] | IC50 (Toledo cells) [nM] | EC30 (MMA in RKO cells) [nM]
1 | CNCCN(C)Cc1ccc2c(c1C1CCN(c3cccc(C)c3)CC1)CC(C)(C)C(=O)N2 [P410] | < 1000 | – | – | –
2 | CNCCN(C)Cc1ccc2[nH]c(=O)[nH]c2c1C1CCN(c2cccc(C)c2)CC1 [P261] | < 1000 | – | – | –
3 | CNCCN(C)Cc1ccc2[nH]c(N3CCOCC3)nc2c1C1CCN(c2cccc(C)c2)CC1 [P406, N,N′-dimethyl-N′-[[2-morpholin-4-[1-(m-tolyl)-4-piperidinyl]-1H-benzo[d]imidazol-5-yl]methyl]ethane-1,2-diamine] | < 1000 | < 50 | – | –
4 | CCOCC1(COCC)CCC(c2c(CN(C)CCNC)ccc3[nH]c(N4CCOCC4)nc23)CC1 [P419] | < 1000 | – | – | –
5 | CNCCN(C)Cc1ncc2[nH]c(C)nc2c1C1CCN(c2cccc(C)c2)CC1 [P415] | < 1000 | – | – | –
6 | CNCCN(C)Cc1ccc2[nH]c(C3=CCN(C)CC3)nc2c1C1CCN(c2cccc(C)c2)CC1 [P447] | < 1000 | – | – | –
7 | CNCCN(C)Cc1ncc2[nH]c(N3CCOCC3)nc2c1C1CCN(c2cccc(C)c2)CC1 [P414] | < 1000 | – | – | –
8 | CNCCN(C)Cc1cc2nc(N)[nH]c2cc1C1CCN(c2cccc(C)c2)CC1 [P408] | ≥ 5000 | – | – | –
9 | CNCCN(C)Cc1ncc2[nH]c(=O)[nH]c2c1C1CCN(c2cccc(C)c2)CC1 [P413] | < 1000 | – | – | –
10 | CNCCN(C)Cc1ccc2[nH]c(N3CCCCC3)nc2c1C1CCN(c2cccc(C)c2)CC1 [P424] | < 1000 | – | – | –
11 | CNCCN(C)Cc1ccc2c(c1C1CCN(c3cccc(C)c3)CC1)C(C)(C)C(=O)N2 [P402] | 1000 to 5000 | 50 to 500 | – | –
12 | CNCCN(C)Cc1cnc2[nH]ncc2c1C1CCN(c2cccc(C)c2)CC1 [P409] | < 1000 | 50 to 500 | – | –
13 | CNCCN(C)Cc1ccc2c(c1C1CCN(c3cccc(C)c3)CC1)C(=O)C(=O)N2 [P405] | < 1000 | < 50 | – | –
14 | CNCCN(C)Cc1ccc2[nH]c(C(F)(F)F)nc2c1C1CCN(c2cccc(C)c2)CC1 [P416] | < 1000 | – | – | –
15 | CNCCN(C)Cc1ccc2[nH]c(N3CCN(C(=O)CCCC(=O)N4CCN(c5nc6c(C7CCN(c8cccc(C)c8)CC7)c(CN(C)CCNC)ccc6[nH]5)CC4)CC3)nc2c1C1CCN(c2cccc(C)c2)CC1 [P442] | < 1000 | – | – | –
16 | Cc1cccc(N2CCC(c3c(CN(C)CCN)ccc4[nH]c(N5CCOCC5)nc34)CC2)c1 [P425] | < 1000 | – | – | –

Row | Structure (SMILES) | IC50 (MV-4-11 cells) [nM] | IC50 (PRMT1) [nM] | IC50 (Toledo cells) [nM] | EC30 (MMA in RKO cells) [nM]
17 | CNCCN(C)Cc1ccc2[nH]c(-c3cnc(C)nc3)nc2c1C1CCN(c2cccc(C)c2)CC1 [P418] | < 1000 | – | – | –
18 | CNCCN(C)Cc1ccc2c(c1C1CCN(c3cccc(C)c3)CC1)C(=O)C(=O)N2Cc1ccc(OC)cc1 [P404] | < 1000 | 50 to 500 | – | –
19 | CNCCN(C)Cc1ccc2[nH]c(N3CCOCC3)nc2c1C1CCN(c2cccc(C)n2)CC1 [P428] | < 1000 | – | – | –
20 | CNCCN(C)Cc1ccc2[nH]c(N3CCOCC3)nc2c1C1CCN(c2cncc(F)c2)CC1 [P429] | < 1000 | – | – | –
21 | CNCCN(C)Cc1ccc2[nH]c(N3CCN(C)CC3)nc2c1C1CCN(c2cccc(C)c2)CC1 [P423] | < 1000 | – | – | –
22 | CCN(CCNC)Cc1ccc2[nH]c(N3CCOCC3)nc2c1C1CCN(c2cccc(C)c2)CC1 [P426] | < 1000 | – | – | –
23 | CNCCN(C)Cc1ccc2[nH]c(N3CCNCC3)nc2c1C1CCN(c2cccc(C)c2)CC1 [P440] | < 1000 | – | – | –
24 | CNCCN(C)Cc1ccc2nn(C)cc2c1C1CCN(c2cccc(C)c2)CC1 [P401] | < 1000 | < 50 | – | –
25 | CNCCN(C)Cc1ccc2[nH]c(N3CCOCC3)nc2c1C1CCc2cc(F)c(F)cc2CC1 [P420] | < 1000 | – | – | –
26 | CNCCN(C)Cc1ccc2[nH]c(C3CCN(C)CC3)nc2c1C1CCN(c2cccc(C)c2)CC1 [P448] | < 1000 | – | – | –
27 | CNCCN(C)Cc1ccc2[nH]c(C3=CCOCC3)nc2c1C1CCN(c2cccc(C)c2)CC1 [P422] | < 1000 | – | – | –
28 | CNCCN(C)Cc1ccc2[nH]c(C(=O)c3ccccc3)nc2c1C1CCN(c2cccc(C)c2)CC1 [P407] | < 1000 | 50 to 500 | – | –
29 | CNCCN(C)Cc1ccc(NCCNCC(=O)NC)nc1C1CCN(c2cccc(C)c2)CC1 [P400] | < 1000 | – | – | –
30 | CNCCN(C)Cc1ncccc1C1CCN(c2nc(N(C)C)nc3ccccc23)CC1 [P240] | – | < 50 | < 1000 | 250 to 2500
31 | CNCCN(C)Cc1ccc2[nH]ncc2c1C1CCc2cc(F)c(F)cc2CC1 [P167, N1-((4-(2,3-difluoro-6,7,8,9-tetrahydro-5H-benzo[7]cyclopenten-7-yl)-1H-indazol-5-yl)methyl)-N1,N2-dimethylethane-1,2-diamine] | – | < 50 | < 1000 | < 250
32 | CNCCN(C)Cc1ncccc1C1CCN(c2ccnc(N3CCCC3)n2)CC1 [P251] | – | < 50 | < 1000 | 250 to 2500
